Laboratory results published in patent US20120316078A1, “METHODS AND MATERIALS FOR PRODUCING POLYPEPTIDES IN VITRO” (priority 2011, published 2012).

Target: GFP (Aequorea victoria, UniProt P42212)
Details: array of randomly generated peptides; GFP binding assay
Text: Peptide aptamers also can be selected using a peptide array containing randomly generated peptides (e.g., 10,000 randomly generated peptides) that are 10 to 35 amino acids (e.g., 15 to 25 or 20 amino acids) in length. The peptide array can be screened using a binding assay with the protein target (e.g., GFP or thioredoxin). For example, when a fluorescent protein such as GFP is the target, GFP-binding peptides can be directly identified through a fluorescent scanner after a GFP binding assay.

| Sequence | binding to GFP on peptide array (strong fluorescence spots) |
| --- | --- |
| CSGFRAMWLYRNWESQVEAT [SEQ ID NO:2] | bind specifically to the GFP |
| CSGPYGTHFMYKSGGWRAIY [SEQ ID NO:4] | bind specifically to the GFP |
| CSGWNHVIYEGTRYNWFRDS [SEQ ID NO:3] | bind specifically to the GFP |
